Our source for the DC50 and IC50 values is patent publication EP4567035A1, “NOVEL COMPOUND AS HYPOXIA-INDUCIBLE FACTOR 1(HIF-1) INHIBITOR OR VASCULAR ENDOTHELIAL GROWTH FACTOR (VEGF) INHIBITOR, AND PHARMACEUTICAL COMPOSITION COMPRISING SAME” (Nextgen Bioscience Co., Ltd., priority 2022, dated 2024).

The structures appear in SMILES notation. Where two headings read alike, the source gives them in different places.

One assay has as its target T1, HIF-1α (Homo sapiens, UniProt Q16665).
T1 construct: endogenous in cells; host or cells: ARPE-19 (ATCC CRL-2302)
The experiment in a line: Analysis of HIF-1α protein expression (Western blot) in ARPE-19 cells under mixed hypoxic condition. The class given is cell-based. As to conditions: mixed hypoxic condition (1% oxygen + CoCl2) for 1 hour, concentration range at which HIF-1α expression is reduced by 50% vs untreated control, read-out: IC50 HIF-1α Hypoxia (1 hour). How it is done: (§1) ARPE-19 cells (Human retinal pigment epithelial cells, ATCC CRL-2302) were cultured in DMEM/F12 (LM002-08, Welgene) medium containing 10% fetal bovine serum (FBS, 16000-044, Gibco) in an incubator at 37°C with 5% carbon dioxide. When the cells grew sufficiently, they were cultured in experimental culture dishes for protein isolation and medium supernatant acquisition.
(§2) Cells were detached from the culture dish using TrypLE™ Express (Gibco). After centrifugation at 1000 rpm for 3 minutes, the supernatant was removed. The cells were counted and seeded into new culture dishes. Normoxic conditions were maintained by culturing the cells in a 37°C incubator with 5% carbon dioxide, and hypoxic conditions were maintained by culturing the cells in a hypoxic incubator with 1% oxygen, 5% carbon dioxide, and 94% nitrogen gas.
In a disease of macular degeneration, hypoxia is a very important condition, and since the expression of downstream genes is regulated by HIF-1α, a transcription factor that is stabilized in hypoxic conditions, the following experiment was conducted to confirm this.
Mixed hypoxic condition was used for HIF-1α stability experiments, in which hypoxia was induced with 1% oxygen and the stability of HIF-1α was enhanced by treatment with cobalt chloride (CoCl2).
The compounds of each Example were diluted to 0.1 nM, 1 nM, 3 nM, 10 nM, 30 nM, 100 nM, 300 nM, 1 µM, and 10 µM in DMEM/F12 medium without fetal bovine serum, pretreated for 16 hours or 2 hours, and cultured for 1 hour or 24 hours in a mixed hypoxic condition. The cell medium was discarded, and protein lysates were obtained by rapidly treating with protein lysis buffer (RIPA Lysis and Extraction buffer, Thermo Fisher Scientific). LDS (4X Bolt ™ LDS Sample buffer) and reducing agent (10X Bolt ™ Sample Reducing Agent) were added together to the protein lysate, and heated at 70°C for 10 minutes. The lysate was separated by electrophoresis on a 4-12% Bis-Tris gel, transferred to a PVDF membrane, and blocked with 3% BSA (Albumin, Bovine, Fraction V, MPbio). The membrane was incubated overnight at 4°C with a mixture of anti-HIF-1α (ab179483, abcam) and anti-b-actin (MA515739, Invitrogen) antibodies at a ratio of 1:4000. The following day, the membrane was treated with a peroxidase-conjugated secondary antibody for 1 hour at room temperature, and the target protein was expressed using an ECL solution (Clarity ™ Western ECL substrate, Bio-rad) and quantified.
Based on the results of the expression level of HIF-1α in cells treated with compounds diluted from 10 µM to 0.1 nM, the concentration range of the compound at which the expression level of HIF-1α was reduced by 50% or less compared to the untreated control group was derived.

The next assay concerns VEGF. The experiment in a line: Evaluation of VEGF protein secretion level (Human VEGF ELISA) in ARPE-19 cell medium under hypoxic conditions. The format is cell-based. How it is done:
as §1, §2
The expression of the downstream gene, angiogenesis inducer VEGF, is regulated by HIF-1α, a major transcription factor under hypoxic conditions, and the level of secreted VEGF protein can be quantitatively confirmed through ELISA (Enzyme Linked Immunosorbent Assay, Human VEGF Quantikine ELISA Kit, R&D systems). For this purpose, the following experiment was conducted.
The compounds of each Example were diluted to 0.1 nM, 1 nM, 3 nM, 10 nM, 30 nM, 100 nM, 300 nM, 1 µM and 10 µM in DMEM/F12 medium containing 1% fetal bovine serum, pretreated for 2 hours, and cultured for 24 hours under hypoxic conditions to obtain the cell medium supernatant. The supernatant was centrifuged at 1000 rpm for 3 minutes, and a specific amount was treated with a VEGF ELISA assay kit and the absorbance value was measured at 450 nm to quantitatively confirm the level of VEGF protein (see Table 1 below).
Based on the results of secreted VEGF protein expression levels in cell media treated with compounds diluted at concentrations ranging from 10 µM to 0.1 nM, the concentration range of the compound at which the secreted VEGF protein level was reduced by 50% or less compared to the untreated control group was derived.

Where [1] appears, read: ARPE-19 cells, pretreated 2 hours, 24 hours hypoxic conditions, secreted VEGF in medium supernatant by ELISA, concentration range reducing VEGF by 50% vs untreated control, read-out: IC50 VEGF.

T1 sequence (Q16665 whole entry): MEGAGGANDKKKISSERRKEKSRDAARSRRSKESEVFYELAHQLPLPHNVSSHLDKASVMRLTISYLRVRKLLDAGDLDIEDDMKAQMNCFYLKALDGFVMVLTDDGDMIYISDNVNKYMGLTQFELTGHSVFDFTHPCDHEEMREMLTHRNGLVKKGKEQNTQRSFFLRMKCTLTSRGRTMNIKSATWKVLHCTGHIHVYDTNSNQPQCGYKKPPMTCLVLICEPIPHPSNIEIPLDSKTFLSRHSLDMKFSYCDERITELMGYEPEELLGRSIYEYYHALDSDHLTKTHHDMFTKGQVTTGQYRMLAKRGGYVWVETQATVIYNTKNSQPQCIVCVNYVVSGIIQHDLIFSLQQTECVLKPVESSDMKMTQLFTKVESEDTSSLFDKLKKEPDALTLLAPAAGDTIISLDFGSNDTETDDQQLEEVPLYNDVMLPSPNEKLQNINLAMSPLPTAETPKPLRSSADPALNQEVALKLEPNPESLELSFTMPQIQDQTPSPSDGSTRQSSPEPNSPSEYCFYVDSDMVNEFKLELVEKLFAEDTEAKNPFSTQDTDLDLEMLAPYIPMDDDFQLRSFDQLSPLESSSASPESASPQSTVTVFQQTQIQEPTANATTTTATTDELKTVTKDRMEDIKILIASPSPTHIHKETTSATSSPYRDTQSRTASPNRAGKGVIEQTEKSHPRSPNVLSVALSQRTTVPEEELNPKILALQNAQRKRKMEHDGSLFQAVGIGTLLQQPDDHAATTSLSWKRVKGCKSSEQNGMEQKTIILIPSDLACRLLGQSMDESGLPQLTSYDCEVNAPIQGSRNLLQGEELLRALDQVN

Consider `O=C(NCc1cccc(F)c1)c1ncnc2nc(C3CCCC3)[nH]c12` [Example 13, 8-Cyclopentyl-N-(3-fluorobenzyl)-7H-purine-6-carboxamide], for which, on HIF-1α, the DC50 was less than 100 nM. Besides, in the assay with VEGF (setting [1]), the IC50 was 100 to 1000 nM.

For the molecule `O=C(NCc1cc(F)cc(Nc2ccccc2)c1)c1ncnc2nc(C3CCCC3)[nH]c12` [Example 15, 8-Cyclopentyl-N-(3-fluoro-5-(phenylamino)benzyl)-7H-purine-6-carboxamide], on HIF-1α, the DC50 was less than 100 nM. The IC50 in the assay on VEGF (setting [1]) fell in the range of 100 to 1000 nM.

Take `O=C(NCc1cc(F)cc(Nc2ccncc2)c1)c1ncnc2nc(C3CCCC3)[nH]c12` [Example 16, 8-Cyclopentyl-N-(3-fluoro-5-(pyridin-4-ylamino)benzyl)-7H-purine-6-carboxamide]: on HIF-1α, the DC50 is less than 100 nM. Also, the IC50 in the assay on VEGF (setting [1]) lay within 100 to 1000 nM.

Regarding `O=C(NCc1cc(F)cc(Nc2cccc(C(F)(F)F)c2)c1)c1ncnc2nc(C3CCCC3)[nH]c12` [Example 17, 8-Cyclopentyl-N-(3-fluoro-5-((3-(trifluoromethyl)phenyl)amino)benzyl)-7H-purine-6-carboxamide], at HIF-1α, the DC50 was less than 100 nM. The IC50 in the assay on VEGF (setting [1]) is 100 to 1000 nM.

Turning to `CN(C)c1ccc(Nc2cc(F)cc(CNC(=O)c3ncnc4nc(C5CCCC5)[nH]c34)c2)cc1` [Example 18, 8-Cyclopentyl-N-(3-((4-(dimethylamino)phenyl)amino)-5-fluorobenzyl)-7H-purine-6-carboxamide], the DC50 at HIF-1α is less than 100 nM. In addition, in the assay with VEGF (setting [1]), the IC50 lay within 100 to 1000 nM.

As for `CS(=O)(=O)c1ccc(Nc2cc(F)cc(CNC(=O)c3ncnc4nc(C5CCCC5)[nH]c34)c2)cc1` [Example 19, 8-Cyclopentyl-N-(3-fluoro-5-((4-(methylsulfonyl)phenyl)amino)benzyl)-7H-purine-6-carboxamide], at HIF-1α, the DC50 is less than 100 nM. The IC50 in the assay with VEGF (setting [1]) was 100 to 1000 nM.

Consider `O=C(NCc1cc(F)cc(Nc2ccc(Cl)cc2F)c1)c1ncnc2nc(C3CCCC3)[nH]c12` [Example 20, N-(3-((4-chloro-2-fluorophenyl)amino)-5-fluorobenzyl)-8-cyclopentyl-7H-purine-6-carboxamide], for which the DC50 at HIF-1α is less than 100 nM. Further, in the assay on VEGF (setting [1]), the IC50 is 100 to 1000 nM.

Consider `O=C(NCc1cc(F)cc(Nc2ccc(F)cc2)c1)c1ncnc2nc(C3CCCC3)[nH]c12` [Example 21, 8-Cyclopentyl-N-(3-fluoro-5-((4-fluorophenyl)amino)benzyl)-7H-purine-6-carboxamide], for which the DC50 at HIF-1α was less than 100 nM. Further, the IC50 with VEGF (setting [1]) lay in the range of 100 to 1000 nM.

Turning to `N#Cc1cccc(-n2cc(-c3cc(F)cc(CNC(=O)c4ncnc5nc(C6CCCC6)[nH]c45)c3)cn2)c1` [Example 23, N-(3-(1-(3-Cyanophenyl)-1H-pyrazol-4-yl)-5-fluorobenzyl)-8-cyclopentyl-7H-purine-6-carboxamide], the DC50 on HIF-1α is less than 100 nM. Further, in the assay with VEGF (setting [1]), the IC50 was 100 to 1000 nM.

As to `CS(=O)(=O)c1ccc(Cn2cc(-c3cc(F)cc(CNC(=O)c4ncnc5nc(C6CCCC6)[nH]c45)c3)cn2)cc1` [Example 24, 8-Cyclopentyl-N-(3-fluoro-5-(1-(4-(methylsulfonyl)benzyl)-1H-pyrazol-4-yl)benzyl)-7H-purine-6-carboxamide], on HIF-1α, the DC50 is less than 100 nM. Further, the IC50 in the assay with VEGF (setting [1]) was 100 to 1000 nM.

In the case of `COc1ccc(-n2cc(-c3cc(F)cc(CNC(=O)c4ncnc5nc(C6CCCC6)[nH]c45)c3)cn2)cc1` [Example 25, 8-Cyclopentyl-N-(3-fluoro-5-(1-(4-methoxyphenyl)-1H-pyrazol-4-yl)benzyl)-7H-purine-6-carboxamide], the DC50 at HIF-1α is less than 100 nM. In the assay with VEGF (setting [1]), the IC50 was in the range of 100 to 1000 nM.

Turning to `O=C(NCc1cc(F)cc(-c2cnn(-c3ccc(C(F)(F)F)cc3)c2)c1)c1ncnc2nc(C3CCCC3)[nH]c12` [Example 26, 8-Cyclopentyl-N-(3-fluoro-5-(1-(4-(trifluoromethyl)phenyl)-1H-pyrazol-4-yl)benzyl)-7H-purine-6-carboxamide], the DC50 at HIF-1α is less than 100 nM. For the same molecule, in the assay on VEGF (setting [1]), the IC50 lay in the range of 100 to 1000 nM.

Regarding `O=C(NCc1cc(F)cc(-c2cnn(-c3ccc(F)cc3)c2)c1)c1ncnc2nc(C3CCCC3)[nH]c12` [Example 27, 8-Cyclopentyl-N-(3-fluoro-5-(1-(4-fluorophenyl)-1H-pyrazol-4-yl)benzyl)-7H-purine-6-carboxamide], on HIF-1α, the DC50 was less than 100 nM. The IC50 with VEGF (setting [1]) is 100 to 1000 nM.

Consider `CS(=O)(=O)c1ccc(-n2cc(-c3cc(F)cc(CNC(=O)c4ncnc5nc(C6CCCC6)[nH]c45)c3)cn2)cc1` [Example 28, 8-Cyclopentyl-N-(3-fluoro-5-(1-(4-(methylsulfonyl)phenyl)-1H-pyrazol-4-yl)benzyl)-7H-purine-6-carboxamide], for which the DC50 at HIF-1α was less than 100 nM. Moreover, the IC50 in the assay with VEGF (setting [1]) fell in the range of 100 to 1000 nM.

On to `O=C(NCc1cc(F)cc(-c2cnn(Cc3cccc(C(F)(F)F)c3)c2)c1)c1ncnc2nc(C3CCCC3)[nH]c12` [Example 29, 8-Cyclopentyl-N-(3-fluoro-5-(1-(3-(trifluoromethyl)benzyl)-1H-pyrazol-4-yl)benzyl)-7H-purine-6-carboxamide], for which, at HIF-1α, the DC50 is less than 100 nM. Further, the IC50 in the assay on VEGF (setting [1]) lay in the range of 100 to 1000 nM.

Take `O=C(NCc1cc(F)cc(-c2cnn(-c3ccccn3)c2)c1)c1ncnc2nc(C3CCCC3)[nH]c12` [Example 30, 8-Cyclopentyl-N-(3-fluoro-5-(1-(pyridin-2-yl)-1H-pyrazol-4-yl)benzyl)-7H-purine-6-carboxamide]: the DC50 at HIF-1α is less than 100 nM. For the same molecule, in the assay on VEGF (setting [1]), the IC50 fell in the range of 100 to 1000 nM.

For `O=C(NCc1cc(F)cc(-c2cnn(-c3cccnc3)c2)c1)c1ncnc2nc(C3CCCC3)[nH]c12` [Example 31, 8-Cyclopentyl-N-(3-fluoro-5-(1-(pyridin-3-yl)-1H-pyrazol-4-yl)benzyl)-7H-purine-6-carboxamide], at HIF-1α, the DC50 was less than 100 nM. Moreover, the IC50 in the assay with VEGF (ARPE-19 cells, pretreated 2 hours, 24 hours hypoxic conditions, ELISA, read-out: concentration at which the secreted VEGF protein level was suppressed to less than 50%) is less than 100 nM; with VEGF (setting [1]), less than 100 nM; in the assay on VEGF (Experimental Example 2 (HIF-1α Western blot), read-out: concentration at which the expression level of VEGF was suppressed to less than 50%) it was less than 100 nM.

In the case of `O=C(NCc1cc(F)cc(-c2cnn(-c3cncnc3)c2)c1)c1ncnc2nc(C3CCCC3)[nH]c12` [Example 32, 8-Cyclopentyl-N-(3-fluoro-5-(1-(pyrimidin-5-yl)-1H-pyrazol-4-yl)benzyl)-7H-purine-6-carboxamide], the DC50 at HIF-1α was less than 100 nM. Further, in the assay on VEGF (setting [1]), the IC50 lay within 100 to 1000 nM.

For `COc1ccccc1Nc1cc(F)cc(CNC(=O)c2ncnc3nc(C4CCCC4)[nH]c23)c1` [Example 33, 8-Cyclopentyl-N-(3-fluoro-5-((2-methoxyphenyl)amino)benzyl)-7H-purine-6-carboxamide], at HIF-1α, the DC50 is less than 100 nM. In addition, the IC50 in the assay on VEGF (setting [1]) is 100 to 1000 nM.

Consider `COc1cccc(Nc2cc(F)cc(CNC(=O)c3ncnc4nc(C5CCCC5)[nH]c34)c2)c1` [Example 34, 8-Cyclopentyl-N-(3-fluoro-5-((3-methoxyphenyl)amino)benzyl)-7H-purine-6-carboxamide], for which the DC50 at HIF-1α is less than 100 nM. In the assay with VEGF (setting [1]), the IC50 fell in the range of 100 to 1000 nM.

Take `COc1ccc(Nc2cc(F)cc(CNC(=O)c3ncnc4nc(C5CCCC5)[nH]c34)c2)cc1` [Example 35, 8-Cyclopentyl-N-(3-fluoro-5-((4-methoxyphenyl)amino)benzyl)-7H-purine-6-carboxamide]: the DC50 on HIF-1α is less than 100 nM. Also, in the assay on VEGF (setting [1]), the IC50 lay within 100 to 1000 nM.
